Source: patent publication US9409915B2, “Substituted aza-bicyclic imidazole derivatives useful as TRPM8 receptor modulators” (Janssen Pharmaceutica NV, priority 2010, dated 2016)
Structures can show the parent of a compound that is named as a salt. Where two headings read alike, the source gives them in different places.

Target: canine TRPM8 (Canis lupus familiaris, UniProt Q1A7N1)
Assay: In vitro canine TRPM8 functional assay (Ca2+-sensitive fluorescent dye, icilin activation)
Type: cell-based
Experimental: The functional activity of representative compounds of the formula (I) of the present invention was quantified by measuring changes in intracellular calcium concentration using a Ca^2+-sensitive fluorescent dye. The changes in fluorescent signal were monitored by a fluorescence plate reader, either a FLIPR™ (Molecular Devices) or FDSS (Hamamatsu).
HEK293 cells stably expressing canine TRPM8 were routinely grown as monolayers in Dulbecco's minimum essential medium supplemented with 10% FBS, 2 mM L-glutamine, 100 units/mL penicillin, 100 ug/mL streptomycin and 400 μg/mL G418. Cells were maintained in 5% CO2 at 37° C. At 24 hr prior to assay, cells were seeded in black wall, clear-base poly-D-lysine coated 384-well plates (BD Biosciences, NJ, USA) at a density of 5,000 cells per well in culture medium and grown overnight in 5% CO2 at 37° C. On assay day, growth media was removed, and cells were loaded with Calcium 3 Dye (Molecular Devices) for 35 min at 37° C., under 5% CO2 and then incubated for 25 min at room temperature and atmosphere. Subsequently, cells were tested for agonist-induced increases in intracellular Ca^2+ levels using FLIPR™ or FDSS. Cells were treated with compounds of the formula (I) at varying concentrations and intracellular Ca^2+ was measured for 5 min prior to the addition of icilin to each well to achieve a final concentration that produces an approximately 80% maximal response.
Maximal fluorescence intensity (FI) achieved upon addition of icilin was exported from the FLIPR™ or FDSS software and further analyzed using GraphPad Prism 3.02 (Graph Pad Software Inc., CA, U.S.A.). Basal FI was subtracted prior to normalizing data to percent of maximal response. Curves were generated using the average of quadruplicate wells for each data point using nonlinear regression of either sigmoidal dose response or sigmoidal dose response (variable slope). Finally, the EC50 and IC50 values were calculated with the best-fit curve determined by GraphPad Prism

[1] = 0.2 μM compound, HEK293 cells stably expressing canine TRPM8, icilin-induced Ca2+ response
[2] = HEK293 cells stably expressing canine TRPM8, icilin-induced Ca2+ response, eight-point concentration-response
[3] = HEK293, 0.2 μM compound, HEK293 cells stably expressing canine TRPM8, icilin-induced Ca2+ response

Chain of canine TRPM8 (Q1A7N1 1-1104): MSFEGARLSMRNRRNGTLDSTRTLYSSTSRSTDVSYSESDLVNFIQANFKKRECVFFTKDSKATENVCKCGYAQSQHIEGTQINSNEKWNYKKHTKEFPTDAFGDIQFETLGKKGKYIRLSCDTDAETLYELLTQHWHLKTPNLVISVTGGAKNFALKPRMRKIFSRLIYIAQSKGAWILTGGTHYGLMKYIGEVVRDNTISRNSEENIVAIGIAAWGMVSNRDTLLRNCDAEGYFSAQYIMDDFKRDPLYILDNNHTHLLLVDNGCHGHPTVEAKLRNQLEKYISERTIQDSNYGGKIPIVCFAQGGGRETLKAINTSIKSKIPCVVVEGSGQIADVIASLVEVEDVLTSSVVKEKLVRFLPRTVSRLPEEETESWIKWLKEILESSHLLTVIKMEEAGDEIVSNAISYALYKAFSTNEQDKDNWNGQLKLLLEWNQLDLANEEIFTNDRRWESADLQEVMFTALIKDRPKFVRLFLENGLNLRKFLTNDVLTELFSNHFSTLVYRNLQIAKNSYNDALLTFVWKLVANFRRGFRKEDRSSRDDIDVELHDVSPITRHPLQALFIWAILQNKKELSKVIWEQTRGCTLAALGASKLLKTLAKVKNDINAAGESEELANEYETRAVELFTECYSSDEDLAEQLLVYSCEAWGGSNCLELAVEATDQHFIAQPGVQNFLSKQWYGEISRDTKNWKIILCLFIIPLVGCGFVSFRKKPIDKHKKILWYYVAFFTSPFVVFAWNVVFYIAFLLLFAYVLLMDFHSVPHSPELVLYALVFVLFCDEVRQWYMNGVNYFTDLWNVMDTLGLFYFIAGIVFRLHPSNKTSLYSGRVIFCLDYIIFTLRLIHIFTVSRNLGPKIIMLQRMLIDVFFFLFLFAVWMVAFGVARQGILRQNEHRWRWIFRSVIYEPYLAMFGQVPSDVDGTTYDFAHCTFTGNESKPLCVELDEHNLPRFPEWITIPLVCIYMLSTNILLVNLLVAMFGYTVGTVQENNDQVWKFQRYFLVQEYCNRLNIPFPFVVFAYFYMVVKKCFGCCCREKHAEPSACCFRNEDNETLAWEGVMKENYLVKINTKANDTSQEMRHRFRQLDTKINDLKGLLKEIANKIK

| Structure (SMILES) | IC50 [2] [nM] | inhibition at 0.2 µM [1] [%] | other results |
| --- | --- | --- | --- |
| Cn1nc(C(C)(C)C)c(Cl)c1-c1nc2nc(-c3ccccc3C(F)(F)F)cc(C(F)(F)F)c2[nH]1 [Compound 1] | 27 | – | % Inh @ 0.2 μM [1]: 99% |
| COc1nc(-c2ccccc2OC(F)(F)F)cc2nc(-c3c(Cl)c(C(C)(C)C)nn3C)[nH]c12 [Compound 2, 2-(5-tert-Butyl-4-chloro-2-methyl-2H-pyrazol-3-yl)-4-methoxy-6-(2-trifluoromethoxy-phenyl)-3H-imidazo[4,5-c]pyridine sodium salt] | 13 | 100 | – |
| Cn1nc(C(C)(C)C)cc1-c1nc2nc(-c3ccccc3C(F)(F)F)cc(Cl)c2[nH]1 [Compound 6, 2-(5-tert-butyl-2-methyl-2H-pyrazol-3-yl)-7-chloro-5-(2-trifluoromethyl-phenyl)-1H-imidazo[4,5-b]pyridine sodium salt] | 69 | 65 | – |
| CC(C)(C)c1cc(-c2nc3nc(-c4ccccc4C(F)(F)F)cc(Cl)c3[nH]2)on1 [Compound 7, 2-(3-tert-Butyl-isoxazol-5-yl)-7-chloro-5-(2-trifluoromethyl-phenyl)-1H-imidazo[4,5-b]pyridine] | 38 | 99 | – |
| COc1nc(-c2ccccc2C(F)(F)F)cc2nc(-c3c(Cl)c(C(C)(C)C)nn3C)[nH]c12 [Compound 9, 2-(5-tert-Butyl-4-chloro-2-methyl-2H-pyrazol-3-yl)-4-methoxy-6-(2-trifluoromethyl-phenyl)-3H-imidazo[4,5-c]pyridine methanesulfonic acid salt, hydrochloride] | – | 100 | – |
| CC(C)(C)c1cc(-c2nc3nc(-c4ccccc4C(F)(F)F)cc(C(F)(F)F)c3[nH]2)on1 [Compound 10, 2-(3-tert-Butyl-isoxazol-5-yl)-7-trifluoromethyl-5-(2-trifluoromethyl-phenyl)-1H-imidazo[4,5-b]pyridine] | 16 | 101 | – |
| COc1nc(-c2ccccc2Cl)cc2nc(-c3cc(C(C)(C)C)nn3C)[nH]c12 [Compound 12, 2-(5-tert-Butyl-2-methyl-2H-pyrazol-3-yl)-6-(2-chloro-phenyl)-4-methoxy-3H-imidazo[4,5-c]pyridine] | 11 | 101 | – |
| COc1nc(-c2ccccc2C(F)(F)F)cc2[nH]c(-c3onc(C(C)(C)C)c3C#N)nc12 [Compound 13, 3-tert-Butyl-5-[4-methoxy-6-(2-trifluoromethyl-phenyl)-1H-imidazo[4,5-c]pyridine-2-yl]-isoxazole-4-carbonitrile methanesulfonic acid salt] | 46 | 94 | – |
| CC(C)Oc1nc(-c2ccccc2C(F)(F)F)cc2nc(-c3c(C#N)c(C(C)(C)C)nn3C)[nH]c12 [Compound 14, 3-tert-Butyl-5-[4-isopropoxy-6-(2-trifluoromethyl-phenyl)-3H-imidazo[4,5-c]pyridin-2-yl]-1-methyl-1H-pyrazole-4-carbonitrile benzenesulfonic acid salt] | 1.2 | 99 | – |
| Cn1nc(C(C)(C)C)c(C#N)c1-c1nc2cc(-c3ccccc3C(F)(F)F)nc(OCC(F)(F)F)c2[nH]1 [Compound 15, 3-tert-Butyl-1-methyl-5-[4-(2,2,2-trifluoro-ethoxy)-6-(2-trifluoromethyl-phenyl)-3H-imidazo[4,5-c]pyridine-2-yl]-1H-pyrazole-4-carbonitrile methanesulfonic acid salt] | 1.8 | 100 | – |
| CC(C)Oc1nc(-c2ccccc2C(F)(F)F)cc2nc(-c3c(Cl)c(C(C)(C)C)nn3C)[nH]c12 [Compound 16, 2-(5-tert-Butyl-4-chloro-2-methyl-2H-pyrazol-3-yl)-4-isopropoxy-6-(2-trifluoromethyl-phenyl)-3H-imidazo[4,5-c]pyridine benzenesulfonic acid salt] | 0.59 | 99 | – |
| COc1nc(-c2ccccc2Cl)cc2nc(-c3c4c(nn3C)C3(CCCCC3)CC4)[nH]c12 [Compound 18, 2-(2-methyl-6,6-spirocyclohexyl-2,4,5,6-tetrahydro-cyclopenta-2H-pyrazol-3-yl)-4-methoxy-6-(2-chloro-phenyl)-3H-imidazo[4,5-c]pyridine] | – | – | % Inh @ 0.2 μM: 99%; IC50: 8.2 nM |
| Cn1nc(C(C)(C)C)c(Cl)c1-c1nc2cc(-c3ccccc3C(F)(F)F)nc(OCC(F)(F)F)c2[nH]1 [Compound 19, 2-(5-tert-Butyl-4-chloro-2-methyl-2H-pyrazol-3-yl)-4-(2,2,2-trifluoroethoxy)-6-(2-trifluoromethyl-phenyl)-3H-imidazo[4,5-c]pyridine methanesulfonic acid salt] | 0.84 | 100 | – |
| COCCOc1nc(-c2ccccc2C(F)(F)F)cc2nc(-c3c(Cl)c(C(C)(C)C)nn3C)[nH]c12 [Compound 20, 2-(5-tert-Butyl-4-chloro-2-methyl-2H-pyrazol-3-yl)-4-(2-methoxy-ethoxy)-6-(2-trifluoromethyl-phenyl)-3H-imidazo[4,5-c]pyridine benzenesulfonic acid salt] | 0.95 | 99 | – |
| COCCOc1nc(-c2ccccc2C(F)(F)F)cc2nc(-c3c(C#N)c(C(C)(C)C)nn3C)[nH]c12 [Compound 21, 3-tert-Butyl-5-[4-(2-methoxy-ethoxy)-6-(2-trifluoromethyl-phenyl)-3H-imidazo[4,5-c]pyridine-2-yl]-1-methyl-1H-pyrazole-4-carbonitrile benzenesulfonic acid salt] | 0.69 | 99 | – |
| Cn1nc(C(C)(C)C)c(C#N)c1-c1nc2cc(-c3ccccc3C(F)(F)F)nc(N3CCCCC3)c2[nH]1 [Compound 22, 3-tert-Butyl-1-methyl-5-[4-piperidin-1-yl-6-(2-trifluoromethyl-phenyl)-3H-imidazo[4,5-c]pyridine-2-yl]-1H-pyrazole-4-carbonitrile] | 1.4 | 99 | – |
| Cn1nc(C(C)(C)C)c(Cl)c1-c1nc2nc(-c3ccccc3Cl)ccc2[nH]1 [Compound 23, 2-(5-tert-Butyl-4-chloro-2-methyl-2H-pyrazol-3-yl)-5-(2-chloro-phenyl)-1H-imidazo[4,5-b]pyridine hydrochloride] | – | – | inhibition at 0.2 µM [3]: 96% |
| CN1CCN(c2nc(-c3ccccc3C(F)(F)F)cc3nc(-c4c(C#N)c(C(C)(C)C)nn4C)[nH]c23)CC1 [Compound 24, 3-tert-Butyl-1-methyl-5-[4-(4-methyl-piperazin-1-yl)-6-(2-trifluoromethyl-phenyl)-3H-imidazo[4,5-c]pyridin-2-yl]-1H-pyrazole-4-carbonitrile methanesulfonic acid salt] | 7.4 | – | inhibition at 0.2 µM [3]: 99% |
| Cn1nc(C(C)(C)C)c(Cl)c1-c1nc2nc(-c3ccccc3OC(F)(F)F)ccc2[nH]1 [Compound 25, 2-(5-tert-Butyl-4-chloro-2-methyl-2H-pyrazol-3-yl)-5-(2-trifluoromethoxy-phenyl)-1H-imidazo[4,5-b]pyridine hydrochloride] | 12 | – | inhibition at 0.2 µM [3]: 100% |
| CC(C)(C)c1cc(-c2nc3nc(-c4ccccc4Cl)ccc3[nH]2)on1 [Compound 26, 2-(3-tert-Butyl-isoxazol-5-yl)-5-(2-chloro-phenyl)-1H-imidazo[4,5-b]pyridine] | 35 | 100 | – |
| Cn1nc(C(C)(C)C)cc1-c1nc2nc(-c3ccccc3Cl)ccc2[nH]1 [Compound 27, 2-(5-tert-Butyl-2-methyl-2H-pyrazol-3-yl)-5-(2-chloro-phenyl)-1H-imidazo[4,5-b]pyridine] | 124 | 73 | – |
| CN1CCN(c2nc(-c3ccccc3C(F)(F)F)cc3nc(-c4c(Cl)c(C(C)(C)C)nn4C)[nH]c23)CC1 [Compound 28, 2-(5-tert-Butyl-4-chloro-2-methyl-2H-pyrazol-3-yl)-4-(4-methyl-piperazin-1-yl)-6-(2-trifluoromethyl-phenyl)-3H-imidazo[4,5-c]pyridine methanesulfonic acid salt] | 11 | – | inhibition at 0.2 µM [3]: 99% |
| CC(C)(C)c1cc(-c2nc3nc(-c4ccccc4OC(F)(F)F)ccc3[nH]2)on1 [Compound 29, 2-(3-tert-Butyl-isoxazole-5-yl)-5-(2-trifluoromethoxy-phenyl)-1H-imidazo[4,5-b]pyridine] | 33 | 99 | – |
| CC(C)(C)c1cc(-c2nc3nc(-c4ccccc4F)ccc3[nH]2)on1 [Compound 30, 2-(3-tert-Butyl-isoxazol-5-yl)-5-(2-fluoro-phenyl)-1H-imidazo[4,5-b]pyridine] | 87 | 87 | – |
| CC(C)(C)c1cc(-c2nc3nc(-c4ccccc4C(F)(F)F)ccc3[nH]2)on1 [Compound 31, 2-(3-tert-Butyl-isoxazol-5-yl)-5-(2-trifluoromethyl-phenyl)-1H-imidazo[4,5-b]pyridine] | 18 | 100 | – |
